Data: DBAASP
≈ marks a conversion by molar mass, not a printed value.

Tests used:
Experiment in all cases: ≥ marks a high value that may be exact or a test limit, other limits are often not marked, values filed in µg/mL are converted to µM
[1] = system: Pseudomonas aeruginosa ATCC 27853
[2] = system: Candida albicans ATCC 10231
[3] = system: Staphylococcus aureus ATCC 29213
[4] = system: Klebsiella pneumoniae ATCC 700603
[5] = system: Pseudomonas aeruginosa ATCC 9027
[6] = system: Staphylococcus aureus ATCC 25923
Acinetobacter baumannii = system: Acinetobacter baumannii
[7] = system: Escherichia coli ATCC 25922
Escherichia coli = system: Escherichia coli
Bacillus cereus = system: Bacillus cereus
[8] = system: Candida albicans ATCC 2002
Bacillus subtilis = system: Bacillus subtilis
Staphylococcus aureus = system: Staphylococcus aureus
[9] = system: Salmonella enterica subsp. enterica serovar Typhimurium C77-31
[10] = system: Staphylococcus epidermidis ATCC 12228
Escherichia coli UB1005 = system: Escherichia coli UB1005
Pseudomonas aeruginosa = system: Pseudomonas aeruginosa
[11] = system: Acinetobacter baumannii ATCC 19606

Row | SMILES | MIC [6] [µM] | MIC (Acinetobacter baumannii) [µM] | MIC [7] [µM] | MIC (Escherichia coli) [µM] | MIC (Bacillus cereus) [µM] | also measured
1 | CC(C)C[C@H](NC(=O)[C@H](CCCCN)NC(=O)[C@@H]1CCCN1C(=O)[C@H](CC(C)C)NC(=O)[C@H](CC(C)C)NC(=O)CNC(=O)[C@H](CCCCN)NC(=O)[C@H](CC(C)C)NC(=O)[C@H](CCCCN)NC(=O)[C@@H]1CCCN1C(=O)[C@H](CC(C)C)NC(=O)[C@H](CC(C)C)NC(=O)[C@H](CC(C)C)NC(=O)[C@H](CCCCN)NC(=O)[C@H](CC(C)C)NC(=O)[C@H](CC(C)C)NC(=O)[C@H](CCCCN)NC(=O)[C@@H](N)Cc1ccc(O)cc1)C(N)=O [YKLLKLLLPKLKGLLPKL] | – | – | – | – | – | MIC [1]: 5.86 µM (≈ 12.2 µg/mL); MIC [2]: 40 µM (≈ 83.6 µg/mL); MIC [3]: 5.93 µM (≈ 12.4 µg/mL)
2 | CSCC[C@H](NC(=O)[C@H](CC(C)C)NC(=O)[C@H](CCCCN)NC(=O)CNC(=O)[C@H](C)NC(=O)[C@H](C)NC(=O)[C@H](CCCN=C(N)N)NC(=O)[C@H](Cc1ccccc1)NC(=O)[C@H](CC(C)C)NC(=O)[C@@H](NC(=O)[C@H](Cc1c[nH]c2ccccc12)NC(=O)[C@@H](NC(=O)[C@@H](N)CCCCN)C(C)C)[C@@H](C)O)C(=O)N[C@@H](C)C(=O)N[C@@H](CCCCN)C(N)=O [KVWTLFRAAGKLMAK] | > 25 | 25 (≈ 43 µg/mL) | > 25 | – | – | MIC [4]: > 25 µM; MIC [5]: > 25 µM
3 | CC[C@H](C)[C@H](NC(=O)[C@H](CC(C)C)NC(=O)CNC(=O)[C@@H](NC(=O)[C@@H](NC(=O)[C@H](C)NC(=O)[C@@H]1CCCN1C(=O)[C@@H](NC(=O)[C@@H](NC(=O)[C@H](CCCCN)NC(=O)[C@H](CO)NC(=O)[C@H](C)NC(=O)[C@H](CC(C)C)NC(=O)[C@H](CO)NC(=O)[C@H](Cc1ccccc1)NC(=O)[C@H](CC(C)C)NC(=O)[C@H](C)NC(=O)CN)C(C)C)C(C)C)C(C)C)[C@@H](C)CC)C(=O)N[C@@H](CCCCN)C(=O)N[C@@H](CCCCN)C(=O)O [GALFSLASKVVPAVIGLIKK] | – | – | – | > 127 | ≥ 127 | –
4 | CC[C@H](C)[C@H](NC(=O)[C@H](C)NC(=O)[C@H](CCCN=C(N)N)NC(=O)[C@H](Cc1ccc(O)cc1)NC(=O)[C@H](CC(C)C)NC(=O)[C@H](CC(N)=O)NC(=O)[C@H](Cc1ccc(O)cc1)NC(=O)CNC(=O)[C@H](C)NC(=O)[C@@H](NC(=O)[C@@H](NC(=O)[C@@H](NC(=O)[C@H](CCCN=C(N)N)NC(=O)[C@@H](NC(=O)[C@@H](NC(=O)[C@@H](NC(=O)[C@@H]1CCCN1C(=O)[C@H](Cc1c[nH]c2ccccc12)NC(=O)[C@@H](N)Cc1ccccc1)C(C)C)C(C)C)[C@@H](C)CC)[C@@H](C)O)C(C)C)C(C)C)C(=O)N[C@@H](CCCCN)C(=O)N[C@@H](CCCCN)C(=O)N[C@@H](CCCCN)C(=O)O [FWPVVIRTVVAGYNLYRAIKKK] | 0.447 (≈ 1.17 µg/mL) | – | 10.7 (≈ 28.1 µg/mL) | – | – | MIC [8]: 0.335 µM (≈ 0.879 µg/mL); MIC (Bacillus subtilis): 1.34 µM (≈ 3.52 µg/mL)
5 | CC(C)C[C@H](NC(=O)CNC(=O)[C@H](Cc1ccccc1)NC(=O)[C@H](CC(C)C)NC(=O)[C@H](C)NC(=O)CN)C(=O)N[C@@H](C)C(=O)N[C@@H](CO)C(=O)N[C@@H](CCCCN)C(=O)N[C@H](C(=O)N[C@@H](Cc1ccccc1)C(=O)N1CCC[C@H]1C(=O)N[C@@H](C)C(=O)N[C@H](C(=O)N[C@@H](Cc1ccccc1)C(=O)NCC(=O)N[C@@H](C)C(=O)N[C@@H](Cc1ccccc1)C(=O)N[C@@H](CCCCN)C(=O)N[C@@H](CCCCN)C(=O)O)C(C)C)C(C)C [GALFGLASKVFPAVFGAFKK] | – | – | – | 125 (≈ 256 µg/mL) | ≥ 125 | –
6 | CC(C)[C@H](NC(=O)[C@H](CCCN=C(N)N)NC(=O)[C@H](Cc1c[nH]c2ccccc12)NC(=O)[C@H](CCCN=C(N)N)NC(=O)[C@@H](NC(=O)[C@H](CCCN=C(N)N)NC(=O)[C@H](Cc1c[nH]c2ccccc12)NC(=O)[C@H](CCCN=C(N)N)NC(=O)[C@@H](NC(=O)[C@H](CCCN=C(N)N)NC(=O)[C@@H](N)Cc1c[nH]c2ccccc12)C(C)C)C(C)C)C(=O)N[C@@H](CCCN=C(N)N)C(N)=O [WRVRWRVRWRVR] | 2 (≈ 3.62 µg/mL) | 2 (≈ 3.62 µg/mL) | 4 (≈ 7.24 µg/mL) | 2 (≈ 3.62 µg/mL) | – | MIC [9]: 4 µM (≈ 7.24 µg/mL); MIC [10]: 2 µM (≈ 3.62 µg/mL); MIC (Staphylococcus aureus): 1 µM (≈ 1.81 µg/mL); MIC [3]: 1 µM (≈ 1.81 µg/mL); MIC (Escherichia coli UB1005): 2 µM (≈ 3.62 µg/mL); MIC (Pseudomonas aeruginosa): 4 µM (≈ 7.24 µg/mL)

Continued, in another order:

Row | MIC [6] [µM] | MIC (Acinetobacter baumannii) [µM] | MIC [7] [µM] | MIC (Escherichia coli) [µM] | MIC (Bacillus cereus) [µM] | SMILES | also measured
7 | 64 (≈ 113 µg/mL) | ≥ 32 | 64 (≈ 113 µg/mL) | – | – | CC[C@H](C)[C@H](N)C(=O)N[C@H](C(=O)N[C@@H](CCCCN)C(=O)N[C@@H](Cc1c[nH]c2ccccc12)C(=O)N[C@@H](CC(C)C)C(=O)N[C@@H](CC(C)C)C(=O)N[C@@H](CC(N)=O)C(=O)N[C@@H](C)C(=O)N[C@H](C(=O)N[C@@H](CCCCN)C(=O)N[C@@H](CCCCN)C(=O)NCC(=O)N[C@@H](Cc1ccccc1)C(=O)N[C@@H](CCCCN)C(=O)N[C@@H](CC(C)C)C(=O)O)[C@@H](C)CC)[C@@H](C)O [ITKWLLNAIKKGFKL] | MIC [4]: 64 µM (≈ 113 µg/mL); MIC [5]: 64 µM (≈ 113 µg/mL)
8 | – | – | – | 124 (≈ 256 µg/mL) | ≥ 124 | CC[C@H](C)[C@H](NC(=O)[C@H](CC(=O)O)NC(=O)[C@H](CCCCN)NC(=O)[C@@H](NC(=O)[C@H](CC(C)C)NC(=O)[C@H](CO)NC(=O)[C@H](CCSC)NC(=O)[C@H](CC(C)C)NC(=O)CN)C(C)C)C(=O)N[C@@H](C)C(=O)N[C@@H](CCCCN)C(=O)N[C@@H](CC(C)C)C(=O)N[C@@H](C)C(=O)N[C@@H](C)C(=O)N[C@@H](CCCCN)C(=O)N[C@@H](CCC(N)=O)C(=O)NCC(=O)N[C@@H](C)C(=O)N[C@@H](CCCCN)C(=O)N[C@@H](CCC(N)=O)C(=O)O [GLMSLVKDIAKLAAKQGAKQ] | –
9 | – | – | – | 59.5 (≈ 128 µg/mL) | ≥ 119 | CC[C@H](C)[C@H](NC(=O)[C@@H](NC(=O)[C@H](CS)NC(=O)[C@H](Cc1ccc(O)cc1)NC(=O)[C@@H](NC(=O)[C@H](C)NC(=O)[C@@H]1CCCN1C(=O)[C@H](Cc1ccccc1)NC(=O)[C@@H](NC(=O)[C@H](CCCCN)NC(=O)[C@H](CO)NC(=O)[C@H](C)NC(=O)[C@H](CC(C)C)NC(=O)[C@H](CCCCN)NC(=O)CNC(=O)[C@H](CC(C)C)NC(=O)[C@H](C)N)C(C)C)C(C)C)[C@@H](C)O)C(=O)N[C@@H](CO)C(=O)N[C@@H](CCCN=C(N)N)C(=O)N[C@@H](CCCCN)C(=O)O [ALGKLASKVFPAVYCTISRK] | –
10 | – | – | – | 117 (≈ 256 µg/mL) | 7.33 (≈ 16 µg/mL) | CC(C)C[C@H](NC(=O)[C@H](CCCCN)NC(=O)[C@H](Cc1ccccc1)NC(=O)[C@@H](NC(=O)[C@@H](NC(=O)CNC(=O)[C@H](CC(C)C)NC(=O)[C@@H](N)Cc1ccccc1)C(C)C)C(C)C)C(=O)N[C@H](C(=O)N[C@@H](CO)C(=O)N[C@@H](CCCCN)C(=O)N[C@H](C(=O)N[C@@H](Cc1ccccc1)C(=O)N1CCC[C@H]1C(=O)N[C@@H](C)C(=O)N[C@H](C(=O)N[C@@H](Cc1ccccc1)C(=O)NCC(=O)N[C@@H](CCCCN)C(=O)N[C@H](C(=O)O)C(C)C)C(C)C)C(C)C)C(C)C [FLGVVFKLVSKVFPAVFGKV] | MIC (Staphylococcus aureus): 3.67 µM (≈ 8 µg/mL)
11 | – | – | – | > 129 | ≥ 129 | CC[C@H](C)[C@H](NC(=O)[C@H](C)NC(=O)[C@H](CO)NC(=O)[C@H](Cc1ccccc1)NC(=O)[C@@H](NC(=O)[C@H](CO)NC(=O)[C@@H]1CCCN1C(=O)[C@@H](NC(=O)[C@@H](NC(=O)[C@H](CCCCN)NC(=O)[C@H](CO)NC(=O)[C@H](C)NC(=O)[C@@H](NC(=O)CNC(=O)[C@H](Cc1ccccc1)NC(=O)[C@@H](NC(=O)[C@H](C)NC(=O)CN)C(C)C)C(C)C)C(C)C)C(C)C)C(C)C)C(=O)N[C@@H](CCCCN)C(=O)N[C@@H](CCCCN)C(=O)O [GAVFGVASKVVPSVFSAIKK] | –
12 | – | 6.42 (≈ 20 µg/mL) | – | – | – | CC[C@H](C)[C@H](NC(=O)[C@H](CCCN=C(N)N)NC(=O)[C@@H](NC(=O)[C@@H](NC(=O)[C@@H]1CCCN1C(=O)[C@@H](NC(=O)[C@@H](NC(=O)[C@@H](NC(=O)[C@@H]1CCCN1C(=O)CNC(=O)[C@H](Cc1ccc(O)cc1)NC(=O)[C@H](CCCCN)NC(=O)[C@H](CCCCN)NC(=O)[C@H](Cc1c[nH]c2ccccc12)NC(=O)[C@H](C)NC(=O)[C@H](CCCN=C(N)N)NC(=O)[C@H](CC(C)C)NC(=O)[C@@H](NC(=O)[C@H](CCCCN)NC(=O)[C@H](CCCN=C(N)N)NC(=O)CNC(=O)[C@H](CC(C)C)NC(=O)[C@H](CCCCN)NC(=O)[C@H](CCCN=C(N)N)NC(=O)[C@H](CC(C)C)NC(=O)CNC(=O)CN)[C@@H](C)CC)[C@@H](C)CC)[C@@H](C)CC)C(C)C)[C@@H](C)CC)[C@@H](C)CC)C(=O)O [GGLRKLGRKILRAWKKYGPIIVPIIRI] | MIC [11]: 3.21 µM (≈ 10 µg/mL)
